# According to paper PMC3463238 (Toxicology letters, 2012):
# Read-outs that look alike come from different tables or passages of the source. Marks after values point to notes of the source that are not given here.
# How the values were obtained:
# [1] = Reactivity of styrene oxide and halogenated styrene oxides to cysteamine; format: physicochemical; settings: oxide 1.0 μM, cysteamine 100 μM, phosphate buffer, 37 °C
# [2] = Observed stability of the compound; format: physicochemical
# [3] = tested on: CYP2E1 transgenic cells (h2E1); settings: for Decrease in cell viability relative to vehicle group: 24 h, 100 μM
# [4] = tested on: cellular proteins of CYP2E1 cells; settings: human, 24 h, 100 μM
# [5] = tested on: cellular proteins of wild-type cells; settings: human, 24 h, 100 μM
# recombinant human CYP2E1 = recombinant human CYP2E1 (Homo sapiens, UniProt P05181); settings: pH 7.4
# in vitro [6] = settings: human
# in vitro [7] = settings: human; remark: listed apart in the source
# [8] = Cellular GSH contents in CYP2E1 cells; settings: human
# [9] = Cytotoxicity in CYP2E1 transgenic cells; settings: human
# [10] = tested on: cellular proteins of CYP2E1 cells; experiment: Cellular protein covalent binding of 14C-labeled styrenes in CYP2E1 cells; settings: 14C-labeled compound 100 μM, 24 h
# Chain of recombinant human CYP2E1 (P05181 whole entry): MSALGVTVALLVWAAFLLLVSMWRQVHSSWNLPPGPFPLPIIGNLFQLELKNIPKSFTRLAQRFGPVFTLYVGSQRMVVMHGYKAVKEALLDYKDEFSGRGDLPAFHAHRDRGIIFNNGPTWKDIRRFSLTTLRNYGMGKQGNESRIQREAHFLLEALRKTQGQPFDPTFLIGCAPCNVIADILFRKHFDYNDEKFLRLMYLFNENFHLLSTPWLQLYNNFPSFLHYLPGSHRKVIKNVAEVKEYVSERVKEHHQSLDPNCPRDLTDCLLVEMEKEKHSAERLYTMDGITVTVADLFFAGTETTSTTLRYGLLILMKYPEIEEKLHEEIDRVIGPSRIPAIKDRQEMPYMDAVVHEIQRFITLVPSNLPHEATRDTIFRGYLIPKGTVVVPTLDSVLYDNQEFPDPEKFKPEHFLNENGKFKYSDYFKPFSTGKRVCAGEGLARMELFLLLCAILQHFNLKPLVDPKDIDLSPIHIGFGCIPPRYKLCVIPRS
SMILES,Rate constant for production of the cysteamine adducts [1],Bioactivation index (k × Vmax/Km) (recombinant human CYP2E1),"activity at 3 h, 100 µM (in vitro [6])","viability at 24 h, 100 µM (in vitro [7])",further results
Clc1ccc(C2CO2)cc1 (stereo not drawn) [4-chlorostyrene oxide],16.1 ± 2.08 min⁻¹,–,–,–,–
C=Cc1ccc(I)cc1 [4-iodostyrene],–,–,–,–,Stability [2]: unstableness; Toxicity to CYP2E1 cells compared with another compound ([3]; human): more toxic than 4-bromostyrene
"C=Cc1ccc(Br)cc1 [Br-ST, 4-bromostyrene]",–,31.9 ± 3.48 ^c,61 ± 6.5%,39.6 ± 4.1%,Binding load (radioactivity bound to cellular proteins) [4]: 6.17 nmol/mg protein; Fold lower radioactivity bound to proteins in wild-type cells than CYP2E1 cells [5]: 5 fold; Decrease in cell viability relative to vehicle group ([3]; human): 39.6%
"C=Cc1ccc(Cl)cc1 [Cl-ST, 4-chlorostyrene]",–,15.8 ± 2.03 ^b,71.2 ± 5.8%,57.7 ± 9.9%,Decrease in cell viability relative to vehicle group ([3]; human): 57.7%
"C=Cc1ccc(F)cc1 [F-ST, 4-fluorostyrene]",–,10.4 ± 0.64 ^a,82.4 ± 2.2%,78.8 ± 3.2%,Binding load (radioactivity bound to cellular proteins) [4]: 2.27 nmol/mg protein; Toxicity to CYP2E1 cells compared with another compound [3]: little difference in toxicity
"C=Cc1ccccc1 [ST, Styrene]",–,–,–,–,"activity at 3 h, 100 µM [8]: 83.7 ± 2.1%; viability at 24 h, 100 µM [9]: 80 ± 3%; Binding load (radioactivity bound to cellular proteins) [10]: 2.02 nmol/mg protein"
c1ccc(C2CO2)cc1 (stereo not drawn) [styrene oxide],13.4 ± 1.88 min⁻¹,–,–,–,–

# Further lines, with some results ahead:
Rate constant for production of the cysteamine adducts [1],SMILES,Bioactivation index (k × Vmax/Km) (recombinant human CYP2E1),"activity at 3 h, 100 µM (in vitro [6])","viability at 24 h, 100 µM (in vitro [7])",further results
29.3 ± 3.19 min⁻¹,Brc1ccc(C2CO2)cc1 (stereo not drawn) [4-bromostyrene oxide],–,–,–,–
15.7 ± 1.57 min⁻¹,Fc1ccc(C2CO2)cc1 (stereo not drawn) [4-fluorostyrene oxide],–,–,–,–
